Results published in article PMC4595834, “Comparison of carbon-sulfur and carbon-amine bond in therapeutic drug: 4β-S-aromatic heterocyclic podophyllum derivatives display antitumor activity” (Scientific Reports, 2015).

What was measured:
[1] = test system: HeLa cells; assay: MTT cytotoxicity assay, HeLa; assay type: cell-based, human; details: Homo sapiens, HeLa; MTT, drug exposure 48 h, mean ± SD (n = 3); read-out: Cytotoxic activity (IC50) HeLa
Protocol: (§1) Cytotoxicity of the podophyllum derivatives were determined by reading the absorbance at 492 nm on a multiplate reader (Thermo Fisher Scientific, Multiskan MK3). Cell cycle analysis and apoptosis analysis were analyzed by flow cytometry (Accuri C6, BD). Immunofluorescence images were recorded using laser scanning microscope (Perkin-Elmer & Olympus, UltraView VoX & Ix81). The gel for the decatenation of kDNA by Topoisomerase II study was photographed with UV illumination, Tanon 1600 (Tanon Science & Technology Co., Ltd., Shanghai). The nitrocellulose blotting membrane for western blot analysis was visualized using X-ray film processor and X-ray film, Fujifilm SUPER RX-N-C.
(§2) Cytotoxicity assay was performed on human lung adenocarcinoma epithelial cell line (A549), henrietta lacks strain of cancer cells (HeLa), human gastric carcinoma cell line (BGC 823), and normal human hepatocyte cell line (HL-7702). Cells (3500–13,000) in a 100 μL culture medium per well were seeded into 96-well microtest plates (Falcon, CA). A549 cell lines, HeLa cell lines and HL-7702 cell lines were cultured in DMEM supplemented with 10% CS, 100 mg/L penicillin G, 100 mg/L streptomycin. BGC 823 cell lines were cultured in RPMI medium 1640 supplemented with 10% CS, 100 mg/L penicillin G, and 100 mg/L streptomycin. The cells were incubated at 37 °C, in a humidified atmosphere with 5% CO2 for 48 h. For all cell lines, the microculture tetrazolium [3-(4, 5-dimethylthiazol-2-yl)-2, 5-diphenyltetrazolium bromide, MTT; Sigma, St. Louis, MO] assay was performed to measure the cytotoxic effects. Drug stock solutions (the each drug concentration was 0.5, 1, 10, 20, 50, 100, 200, and 500 μM, respectively) were prepared in DMSO and the final solvent concentration was ≤ 2% DMSO (v/v), a concentration without effect on cell replication. Initial seeding densities varied among the cell lines to ensure a final absorbance reading in control (untreated) cultures in the range 0.6–0.8 A492 units. Drug exposure was for 2 days, and the IC50 value, the drug concentration that reduced the absorbance by 50%, was interpolated from dose-response data. Each test was performed in triplicate, and absorbance readings varied no more than 5%. Data presented as means ± standard deviation (SD). Statistical analyses were performed by the analysis of variance (ANOVA). All statistical analyses were performed using Origin version 8.0 ([…], OriginLab Corp., Northampton, MA, USA). Sigmoidal dose responses and non-linear regression analyses were undertaken to identify half-maximal concentrations for each of the drugs. To evaluate differences in IC50 concentrations, analysis of variance combined with Tukey’s multiple range test was used.

[2] = test system: BGC-823 cells; assay: MTT cytotoxicity assay, BGC-823; assay type: cell-based, human; details: Homo sapiens, BGC-823; MTT, drug exposure 48 h, mean ± SD (n = 3); read-out: Cytotoxic activity (IC50) BGC-823
Protocol: as §1, §2

[3] = test system: A549 cells; assay: MTT cytotoxicity assay, A549; assay type: cell-based, human; details: Homo sapiens, A549, 48 h, MTT, drug exposure 48 h, mean ± SD (n = 3); read-out: Cytotoxic activity (IC50) A549
Protocol: as §1, §2

[4] = MTT cytotoxicity assay, normal hepatocyte HL-7702; assay type: cell-based; details: HL-7702 cells (normal hepatocyte cell line), normal human hepatocyte cell line, drug exposure 48 h, mean ± SD (n = 3), read-out: Cytotoxic activity (IC50) HL-7702
Protocol: as §1, §2

[5] = test system: HeLa cells; assay: Western blot of apoptosis pathway proteins in HeLa cells; assay type: cell-based, human; details: 1 μM, 0-48 h
Protocol: Cells were lysed by adding 100 μL of RIPA buffer (50 mM Tris, pH 8.0, 150 mM NaCl, 1% TX-100, 0.5% sodium deoxycholate, 0.1% SDS) with 1% Protease Inhibitor PMSF. Each sample was then vigorously vortexed twice for 15 seconds, with a 30-minute incubation on ice following each agitation. The cellular debris was pelleted (12,000 rpm, 10 min), and then 100 μL of the protein suspension was transferred to fresh 0.5 mL tubes. The protein levels were quantified using a standard BCA (Thermo Scientific), after which the samples were diluted with deionized water to achieve equal protein concentrations for all samples. Prior to analyzing the samples, 5 × Loading buffer (350 mM Tris, pH 6.8, 12% SDS, 0.012% bromophenol blue, 47% glycerol) with 5% β-mercaptoethanol was added to each sample to achieve a final 1 × concentration, after which the samples were incubated at 95 °C for 10 minutes to denature the protein samples. 20–30 μg of protein was added to and run on a 15-well 4–20% Tris-HCl gel. The gel was equilibrated buffer (39 mM glycine, 48 mM, 0.037 g/L SDS, 200 mL/L methanol) for 5 minutes, then the protein were transferred to a PVDF membrane, which was incubated with 5% fetal bovine serum in TBST (20 mM Tris-HCl, pH 8.0, 150 mM, 0.5 mL/L Tween-20) for 1 h to block non-specific binding, and then probed for the primary antibody at a 1:1000 dilution with a blocking agent in TBST for 1 h at room temperature. The blot was washed with TBST, and then probed with a secondary antibody in TBST for 1 hour at room temperature. The blot was washed with TBST, and then The ECL detection kit (Millipore) was added to catalyze oxidation of luminol to emit chemiluminescence, and the membrane was visualized using X-ray film processor and X-ray film (Fujifilm SUPER RX-N-C).

COc1cc([C@@H]2c3cc4c(cc3[C@@H](Sc3ncccn3)[C@H]3COC(=O)[C@H]23)OCO4)cc(OC)c1O [4′S, 4β-S-(pyrimidine-2)-4-deoxy-4′-demethyl-podophyllotoxin]
IC50 [1]: 12.92 ± 0.08 µM
IC50 [2]: 11.2 ± 0.35 µM
IC50 [3]: 14 ± 1.66 µM
IC50 at 48 h [4]: 140 ± 3.82 µM

COc1cc([C@@H]2c3cc4c(cc3[C@@H](Sc3nc5ccccc5s3)[C@H]3COC(=O)[C@H]23)OCO4)cc(OC)c1O [5′S, 4β-S-(benzothiazole-2)-4-deoxy-4′-demethyl-podophyllotoxin]
IC50 [1]: 1.71 ± 0.07 µM
IC50 [2]: 1.87 ± 0.36 µM
IC50 [3]: 8.25 ± 0.83 µM
IC50 at 48 h [4]: 98.5 ± 3.51 µM

COc1cc([C@@H]2c3cc4c(cc3[C@@H](Nc3nc[nH]n3)[C@H]3COC(=O)[C@H]23)OCO4)cc(OC)c1O [Compound 1′N, 4β-NH-(1,2,4-trizole-3)-4-deoxy-4′-demethyl-podophyllotoxin]
IC50 [1]: 4.36 ± 0.42 µM
IC50 [2]: 15.6 ± 0.41 µM
IC50 [3]: 4.22 ± 0.43 µM
IC50 at 48 h [4]: 38.6 ± 2.52 µM
activation of ATM, ATR, caspase-8, 9 and 3 [5]: significantly weaker signal

COc1cc([C@@H]2c3cc4c(cc3[C@@H](Nc3nncs3)[C@H]3COC(=O)[C@H]23)OCO4)cc(OC)c1OC [Compound 2N, 4β-NH-(1,3,4-thiodiazole-2)-4-deoxy-podophyllotoxin]
IC50 [1]: 6.33 ± 0.36 µM
IC50 [2]: 2.33 ± 0.24 µM
IC50 [3]: 12.5 ± 0.55 µM
IC50 at 48 h [4]: 18.7 ± 3.19 µM

COc1cc([C@@H]2c3cc4c(cc3[C@@H](Nc3nncs3)[C@H]3COC(=O)[C@H]23)OCO4)cc(OC)c1O [2′N, 4β-NH-(1,3,4-thiodizole-2)-4-deoxy-4′-demethyl-podophyllotoxin]
IC50 [1]: 10.3 ± 0.41 µM
IC50 [2]: 15.4 ± 0.63 µM
IC50 [3]: 2.22 ± 0.31 µM
IC50 at 48 h [4]: 28.7 ± 1.31 µM

COc1cc([C@@H]2c3cc4c(cc3[C@@H](Sc3ncccn3)[C@H]3COC(=O)[C@H]23)OCO4)cc(OC)c1OC [Compound 4S, 4β-S-(pyrimidine-2)-4-deoxy-podophyllotoxin]
IC50 [1]: 3.64 ± 0.46 µM
IC50 [2]: 0.49 ± 0.01 µM
IC50 [3]: 2.4 ± 0.76 µM
IC50 at 48 h [4]: 51.1 ± 3.17 µM

COc1cc([C@@H]2c3cc4c(cc3[C@@H](Nc3ncccn3)[C@H]3COC(=O)[C@H]23)OCO4)cc(OC)c1O [4′N, 4β-NH-(pyrimidine-2)-4-deoxy-4′-demethyl-podophyllotoxin]
IC50 [1]: 44.4 ± 2.37 µM
IC50 [2]: 64.2 ± 4.43 µM
IC50 [3]: 70.4 ± 3.92 µM
IC50 at 48 h [4]: 41.8 ± 1.75 µM

COc1cc([C@@H]2c3cc4c(cc3[C@@H](Nc3ccccn3)[C@H]3COC(=O)[C@H]23)OCO4)cc(OC)c1OC [Compound 3N, 4β-NH-(pyridine-2)-4-deoxy-podophyllotoxin]
IC50 [1]: 13.7 ± 2.13 µM
IC50 [2]: 14.3 ± 3.22 µM
IC50 [3]: 28.2 ± 2.58 µM
IC50 at 48 h [4]: 28.2 ± 2.58 µM

COc1cc([C@@H]2c3cc4c(cc3[C@@H](Nc3ccccn3)[C@H]3COC(=O)[C@H]23)OCO4)cc(OC)c1O [3′N, 4β-NH-(pyridine-2)-4-deoxy-4′-demethyl-podophyllotoxin]
IC50 [1]: 96.5 ± 7.64 µM
IC50 [2]: 111 ± 3.55 µM
IC50 [3]: 122 ± 4.6 µM
IC50 at 48 h [4]: 122 ± 5.88 µM

COc1cc([C@@H]2c3cc4c(cc3[C@@H](Nc3ncnc5nc[nH]c35)[C@H]3COC(=O)[C@H]23)OCO4)cc(OC)c1O [6′N, 4β-NH-(purine-6)-4-deoxy-4′-demethylepipodophyllotoxin]
IC50 [1]: 20.5 ± 0.38 µM
IC50 [2]: 43.2 ± 1.36 µM
IC50 [3]: 15.7 ± 1.61 µM
IC50 at 48 h [4]: 19.2 ± 1.31 µM
